From patent US6737383B1, “Herbicidal oxadiazolidines” (priority 1999, dated 2004)

Experiments:
wild oat = assay: Test B pre/postemergence wild oat; format: in vivo, Avena fatua
Method in brief: (§1)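 Herbicidal effect was estimated by eye on a ten-point control scale after plants spent twelve to sixteen days in a greenhouse following soil or foliar treatment. Foliar sprays targeted plants at one to four leaves; all doses were formulated in a non-phytotoxic solvent with surfactant.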

wheat = assay: Test B pre/postemergence wheat; format: in vivo, Triticum aestivum
Method in brief: as §1

bedstraw = assay: Test B pre/postemergence bedstraw; format: in vivo, Galium aparine
Method in brief: as §1

velvetleaf = assay: Test B pre/postemergence velvetleaf; format: in vivo, Abutilon theophrasti
Method in brief: as §1

bamyardgrass = assay: Test B flood test barnyardgrass; format: in vivo, Echinochloa crus-galli
Method in brief: (§2)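 Each value is a visual injury score relative to controls, with 10 meaning complete control and 0 no effect. Evaluation took place twelve to sixteen days after the 2-leaf-stage plants were treated and kept in the greenhouse.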

giant foxtail = assay: Test B pre/postemergence giant foxtail; format: in vivo, Setaria faberii
Method in brief: as §1

smallflower flatsedge = assay: Test B flood test smallflower flatsedge; format: in vivo, Cyperus difformis
Method in brief: as §2

sugar beet = assay: Test B pre/postemergence sugar beet; format: in vivo, Beta vulgaris
Method in brief: as §1

morningglory = assay: Test B pre/postemergence morningglory; format: in vivo, Ipomoea hederacea
Method in brief: as §1

rape = assay: Test B pre/postemergence rape; format: in vivo, Brassica napus
Method in brief: as §1

duck salad = assay: Test B flood test duck salad; format: in vivo, Heteranthera limosa
Method in brief: as §2

pigweed = assay: Test B pre/postemergence pigweed; format: in vivo, Amaranthus retroflexus
Method in brief: as §1

surinam grass = assay: Test B pre/postemergence surinam grass; format: in vivo, Brachiaria decumbens
Method in brief: as §1

blackgrass = assay: Test B pre/postemergence blackgrass; format: in vivo, Alopecurus myosuroides
Method in brief: as §1

corn = assay: Test B pre/postemergence corn; format: in vivo, Zea mays
Method in brief: as §1

crabgrass = assay: Test B pre/postemergence crabgrass; format: in vivo, Digitaria sanguinalis
Method in brief: as §1

purple nutsedge = assay: Test B pre/postemergence purple nutsedge; format: in vivo, Cyperus rotundus
Method in brief: as §1

soybean = assay: Test B pre/postemergence soybean; format: in vivo, Glycine max
Method in brief: as §1

rice = assay: Test B flood test rice; format: in vivo, Oryza sativa
Method in brief: as §2

cocklebur = assay: Test B pre/postemergence cocklebur; format: in vivo, Xanthium strumarium
Method in brief: as §1

[1] = Postemergence, Rate 62 g/ha, scale 0 to 10, 0 is no effect, 10 is complete control
[2] = Postemergence, Rate 125 g/ha, scale of 0 to 10 where 0 is no effect and 10 is complete control
[3] = Preemergence, Rate 62 g/ha, scale of 0 to 10 where 0 is no effect and 10 is complete control
[4] = Preemergence, Rate 125 g/ha, scale of 0 to 10 where 0 is no effect and 10 is complete control
[5] = Preemergence, Rate 500 g/ha, scale of 0 to 10 where 0 is no effect and 10 is complete control
[6] = Rate 500 g/ha, Postemergence, scale 0 to 10, 0 is no effect, 10 is complete control
[7] = Postemergence, Rate 250 g/ha, scale of 0 to 10, 0 is no effect, 10 is complete control
[8] = Rate 62 g/ha, flood test species, Pre-emergence, visual evaluation after twelve to sixteen days
[9] = Rate 125 g/ha, under heading Pre-emergence, flood test species, visual evaluation after twelve to sixteen days
[10] = Rate 250 g/ha, Pre-emergence (flood test species), scale 0 to 10, 0 is no effect, 10 is complete control
[11] = Rate 500 g/ha, Pre-emergence section of Table B, 0 to 10 scale (0 no effect, 10 complete control)
[12] = Preemergence, Rate 250 g/ha, scale 0 to 10 (0 no effect, 10 complete control)

## CC(C)N(C(=O)n1oc(=O)n(CCCC#N)c1=O)c1ccccc1 [Compound 674]
Wild oat; [1]
  Plant response rating, Wild oats: 0
Wild oat; [2]
  Wild oats plant response rating: 0
Wild oat; [3]
  Wild oats plant response rating: 1
Wild oat; [4]
  Plant response rating, Wild oats: 3
Wild oat; [5]
  Plant response rating, Wild oats: 10
Wild oat; [6]
  Wild oats plant response rating: 3
wheat; [1]
  Plant response rating, Wheat: 0
wheat; [2]
  Wheat plant response rating: 0
wheat; [3]
  Wheat plant response rating: 0
wheat; [4]
  Plant response rating, Wheat: 5
wheat; [5]
  Plant response rating, Wheat: 8
wheat; [6]
  Wheat plant response rating: 7
bedstraw; [7]
  Bedstraw plant response rating: 0
bedstraw; [3]
  Bedstraw plant response rating: 0
bedstraw; [4]
  Plant response rating, Bedstraw: 0
bedstraw; [5]
  Plant response rating, Bedstraw: 0
velvetleaf; [1]
  Plant response rating, Velvetleaf: 4
velvetleaf; [2]
  Velvetleaf plant response rating: 6
velvetleaf; [3]
  Velvetleaf plant response rating: 6
velvetleaf; [4]
  Plant response rating, Velvetleaf: 7
velvetleaf; [5]
  Plant response rating, Velvetleaf: 10
velvetleaf; [6]
  Velvetleaf plant response rating: 8
bamyardgrass; [8]
  Plant response rating, Barnyardgrass (0 to 10 scale, 0 is no effect, 10 is complete control): 0
bamyardgrass; [9]
  Barnyardgrass plant response rating (0 to 10 scale, 0 is no effect, 10 is complete control): 0
bamyardgrass; [10]
  Barnyardgrass plant response rating: 0
bamyardgrass; [11]
  Barnyardgrass plant response rating: 0
Giant foxtail; [1]
  Plant response rating, Giant foxtail: 7
Giant foxtail; [2]
  Giant foxtail plant response rating: 9
Giant foxtail; [7]
  Giant foxtail plant response rating: 9
Giant foxtail; [3]
  Giant foxtail plant response rating: 6
Giant foxtail; [4]
  Plant response rating, Giant foxtail: 9
Giant foxtail; [5]
  Plant response rating, Giant foxtail: 10
Giant foxtail; [6]
  Giant foxtail plant response rating: 9
Smallflower flatsedge; [8]
  Plant response rating, S. Flatsedge (0 to 10 scale, 0 is no effect, 10 is complete control): 0
Smallflower flatsedge; [9]
  S. Flatsedge plant response rating (0 to 10 scale, 0 is no effect, 10 is complete control): 0
Smallflower flatsedge; [10]
  S. Flatsedge plant response rating: 0
Smallflower flatsedge; [11]
  S. Flatsedge plant response rating: 0
Sugar beet; [1]
  Plant response rating, Sugarbeets: 0
Sugar beet; [2]
  Sugarbeets plant response rating: 0
Sugar beet; [3]
  Sugarbeets plant response rating: 2
Sugar beet; [4]
  Plant response rating, Sugarbeets: 5
Sugar beet; [5]
  Plant response rating, Sugarbeets: 9
Sugar beet; [6]
  Sugarbeets plant response rating: 5
morningglory; [1]
  Plant response rating, Morningglory: 2
morningglory; [2]
  Morningglory plant response rating: 2
morningglory; [7]
  Morningglory plant response rating: 10
morningglory; [3]
  Morningglory plant response rating: 0
morningglory; [4]
  Plant response rating, Morningglory: 0
morningglory; [5]
  Plant response rating, Morningglory: 7
rape; [1]
  Plant response rating, Rape: 0
rape; [2]
  Rape plant response rating: 0
rape; [3]
  Rape plant response rating: 0
rape; [4]
  Plant response rating, Rape: 3
rape; [5]
  Plant response rating, Rape: 8
rape; [6]
  Rape plant response rating: 5
Duck salad; [8]
  Plant response rating, Ducksalad (0 to 10 scale, 0 is no effect, 10 is complete control): 0
Duck salad; [9]
  Ducksalad plant response rating (0 to 10 scale, 0 is no effect, 10 is complete control): 0
Duck salad; [10]
  Ducksalad plant response rating: 0
Duck salad; [11]
  Ducksalad plant response rating: 0
pigweed; [1]
  Plant response rating, Redroot pigweed: 0
pigweed; [2]
  Redroot pigweed plant response rating: 3
pigweed; [3]
  Redroot pigweed plant response rating: 7
pigweed; [4]
  Plant response rating, Redroot pigweed: 7
pigweed; [5]
  Plant response rating, Redroot pigweed: 10
pigweed; [6]
  Redroot pigweed plant response rating: 7
Surinam grass; [1]
  Plant response rating, B. signalgrass: 3
Surinam grass; [2]
  B. signalgrass plant response rating: 5
Surinam grass; [7]
  B. signalgrass plant response rating: 8
Surinam grass; [3]
  B. signalgrass plant response rating: 6
Surinam grass; [4]
  Plant response rating, B. signalgrass: 7
Surinam grass; [12]
  Plant response rating, B. signalgrass: 8
Surinam grass; [5]
  Plant response rating, B. signalgrass: 8
Surinam grass; [6]
  B. signalgrass plant response rating: 8
blackgrass; [1]
  Plant response rating, Blackgrass: 4
blackgrass; [2]
  Blackgrass plant response rating: 7
blackgrass; [7]
  Blackgrass plant response rating: 8
blackgrass; [3]
  Blackgrass plant response rating: 6
blackgrass; [4]
  Plant response rating, Blackgrass: 8
blackgrass; [12]
  Plant response rating, Blackgrass: 9
blackgrass; [5]
  Plant response rating, Blackgrass: 9
blackgrass; [6]
  Blackgrass plant response rating: 9
corn; [1]
  Plant response rating, Corn: 0
corn; [2]
  Corn plant response rating: 3
corn; [7]
  Corn plant response rating: 6
corn; [3]
  Corn plant response rating: 2
corn; [4]
  Plant response rating, Corn: 3
corn; [12]
  Plant response rating, Corn: 5
corn; [5]
  Plant response rating, Corn: 8
corn; [6]
  Corn plant response rating: 7
crabgrass; [1]
  Plant response rating, Crabgrass: 6
crabgrass; [2]
  Crabgrass plant response rating: 8
crabgrass; [7]
  Crabgrass plant response rating: 9
crabgrass; [3]
  Crabgrass plant response rating: 8
crabgrass; [4]
  Plant response rating, Crabgrass: 9
crabgrass; [12]
  Plant response rating, Crabgrass: 9
crabgrass; [5]
  Plant response rating, Crabgrass: 9
crabgrass; [6]
  Crabgrass plant response rating: 9
Purple nutsedge; [1]
  Plant response rating, Nutsedge: 0
Purple nutsedge; [2]
  Nutsedge plant response rating: 3
Purple nutsedge; [3]
  Nutsedge plant response rating: 0
Purple nutsedge; [4]
  Plant response rating, Nutsedge: 0
Purple nutsedge; [5]
  Plant response rating, Nutsedge: 6
soybean; [1]
  Plant response rating, Soybean: 2
soybean; [2]
  Soybean plant response rating: 3
soybean; [3]
  Soybean plant response rating: 3
soybean; [4]
  Plant response rating, Soybean: 3
soybean; [5]
  Plant response rating, Soybean: 7
soybean; [6]
  Soybean plant response rating: 7
rice; [8]
  Plant response rating, Rice (0 to 10 scale, 0 is no effect, 10 is complete control): 0
rice; [9]
  Rice plant response rating (0 to 10 scale, 0 is no effect, 10 is complete control): 0
rice; [10]
  Rice plant response rating: 0
rice; [11]
  Rice plant response rating: 0
cocklebur; [1]
  Plant response rating, Cocklebur: 0
cocklebur; [2]
  Cocklebur plant response rating: 0
cocklebur; [7]
  Cocklebur plant response rating: 2
cocklebur; [3]
  Cocklebur plant response rating: 0
cocklebur; [4]
  Plant response rating, Cocklebur: 0
cocklebur; [12]
  Plant response rating, Cocklebur: 0
cocklebur; [5]
  Plant response rating, Cocklebur: 0
cocklebur; [6]
  Cocklebur plant response rating: 4
